Reference: paper PMC5039936 (Clinical Pharmacology and Therapeutics, 2015)
Several values for one entry are separate records, joined by “and”; a condition that tells them apart may be missing. Identical values can stand only once.

Columns and labels:
[1] = In vitro clearance in human hepatocytes; assay type: in vitro ADME
[2] = ref unpublished data, Suri, A., Pusalkar, S., Li, Y., & Prakash, S. Clin. Pharmacol. Drug Development 2015, cited from earlier work
[3] = Population PK model of plasma orteronel in patients with mCRPC; assay type: in vivo, human
[4] = In vitro clearance in human liver microsomes; assay type: in vitro ADME
[5] = Phase 1 renal impairment study C21010, urine PK; assay type: in vivo, human; conditions: geometric mean; for CL renal: human, urine, oral, 200 mg, CLrenal
[6] = Plasma protein binding by rapid equilibrium dialysis in study C21010; assay type: in vitro ADME; conditions: human, oral, 200 mg, mean percent unbound of orteronel in plasma, range across the renal function groups
[7] = Phase 1 single-dose renal impairment study C21010, plasma PK; assay type: in vivo, human; conditions: for AUC(0-inf): human, plasma, po, 200 mg, AUCinf, geometric LSM, single oral 200 mg dose; for increase in mean AUCinf compared with normal renal function: single 200 mg dose

in vitro clearance [1]: no appreciable in vitro clearance
ka ([3]; base model, mean (SD)): 2.1 (0.2) h^−1
predicted decrease in CL/F ([3]; final PK model, reduction in CLcr from 92 to 46 mL/min): 28%
BILI on ka ([3]; final model covariate effect, mean (SD)): –0.46 (0.20)
CL/F ([3]; final model, mean (SD)): 17.7 L/h
V/F ([3]; final model, mean (SD)): 261 L
ka ([3]; final model, mean (SD)): 2.2 (0.3) h^−1
in vitro clearance [4]: no appreciable in vitro clearance
CL renal ([5]; mild chronic RI): 97.8 mL/min
CL renal ([5]; moderate chronic RI): 49.2 mL/min
CL renal ([5]; normal renal function): 158 mL/min
CL renal ([5]; severe chronic RI): 25.8 mL/min
fraction of dose excreted as unchanged orteronel (Fe) ([5]; mild chronic RI): 33.1%
fraction of dose excreted as unchanged orteronel (Fe) ([5]; moderate chronic RI): 19.4%
fraction of dose excreted as unchanged orteronel (Fe) ([5]; normal renal function): 44.9%
fraction of dose excreted as unchanged orteronel (Fe) ([5]; severe chronic RI): 13.8%
fraction unbound at 2 h [6]: 0.547 to 0.589
slope of regression of CL/F vs CLcr ([7]; CL/F = 10.90 + 0.101*CLcr, r2 = 0.2177): 0.101
AUC(0-inf) ([7]; mild chronic renal impairment (CLcr ≥60–89 mL/min)): 11300 ng·h/mL
AUC(0-inf) ([7]; moderate chronic renal impairment (CLcr ≥30–59 mL/min)): 13100 ng·h/mL
AUC(0-inf) ([7]; normal renal function (CLcr ≥90 mL/min), fasted): 9500 ng·h/mL
AUC(0-inf) ([7]; severe chronic renal impairment (CLcr ≥15–29 mL/min)): 17800 ng·h/mL
increase in mean AUCinf compared with normal renal function ([7]; mild chronic RI): 18.6% and 19%
increase in mean AUCinf compared with normal renal function ([7]; moderate chronic RI): 38% and 38.4%
increase in mean AUCinf compared with normal renal function ([7]; severe chronic RI): 87% and 87.1%
Structure (SMILES): CNC(=O)c1ccc2cc([C@@]3(O)CCn4cncc43)ccc2c1 [orteronel]
share of orteronel CL characterized as renal CL ([2]; intact parent compound in urine): 53%
share of CL characterized as other CL ([2]; metabolites formed via hydrolysis, neither renal nor hepatic): 19%
